Experimental data as given in patent US8691986B2, “Azetidine and piperidine compounds useful as PDE10 inhibitors” (Amgen Inc., priority 2012, dated 2014).

Key:
[1] = molecular target: human PDE10A2 (Homo sapiens (Human), UniProt Q9Y233); assay: PDE10A enzyme inhibition, PDE IMAP TR-FRET assay; type: biochemical; settings: FAM-cAMP substrate
Method: An IMAP TR-FRET assay was used to analyze the enzyme activity (Molecular Devices Corp., Sunnyvale Calif.). 10 μL of serial diluted PDE10A (BPS Bioscience, San Diego, Calif.) or tissue homogenate was incubated with equal volumes of diluted fluorescein labeled cAMP or cGMP for 90 min in 384-well Polypropylene assay plates (Greiner, Monroe, N.C.) at room temperature. After incubation, the reaction was stopped by adding 55 μL of diluted binding reagents and was incubated for 4 hours to overnight at room temperature. The plates were read on an Envision (Perkin Elmer, Waltham, Mass.) for time resolved fluorescence resonance energy transfer. The data were analyzed with Genedata Screener® (Lexington, Mass.).
To check the inhibition profile, 0.2 μL of serial diluted compounds were incubated with 10 μL of diluted PDE10 enzyme (BPS Bioscience, San Diego, Calif.) or tissue homogenate in a 384-well Polypropylene assay plate (Greiner, Monroe, N.C.) for 60 min at room temperature. After incubation, 10 μL of diluted fluorescein labeled cAMP or cGMP substrate was added and incubated for 90 min at room temperature. The reaction was stopped by adding 55 μL of diluted binding reagents and plates were read on an Envision (Perkin Elmer, Waltham, Mass.) for time resolved fluorescence resonance energy transfer. The data were analyzed with Genedata Screener® (Lexington, Mass.).
Purified human PDE2A1 and PDE10A2 enzymes were obtained from BPS Bioscience (San Diego, Calif.). IMAP™ TR-FRET progressive binding system, FAM-cAMP substrate were from Molecular Devices (Sunnyvale, Calif.).
The PDE IMAP assay was conducted in a 384-well black Greiner polypropylene plate (Sigma, St. Louis, Mo.). PDE inhibitors were serial diluted in 100% DMSO and dispensed into assay plate at […] per well using Echo® Liquid Handling System from LABCYTE. Ten μL of PDE enzyme in IMAP reaction buffer (10 mM Tris-HCl, pH 7.2, 10 mM MgCl2, 0.05% NaN3, and 0.01% Tween-20) was added into the assay wells. The PDE enzyme concentration used was based on each lot of enzyme activity, to ensure enzyme reaction falls in a linear range under assay condition. 1.4 nM of PDE2 or 8 μM PDE10 were used in the assay system. […] Enzyme reaction was allowed to proceed at room temperature for 90 min, and the reaction is stopped by 55 μl addition of binding reagent according to manufacturer's recommendation. The mixture is further incubated at room temperature for additional 4 hours, and signal was read on an Envision multimode reader (PerkinElmer). Fluorescence signals were measured at 520 nm and 485 nm. The signal ratio at 520/485 nm corresponded to the generation of reaction product of AMP, and it was used in all data analysis. Values from DMSO-treated wells were normalized to POC=100, and no-enzyme wells were normalized to POC=0. IC50 values were determined by using the Genedata Screener V9.0.1. The curve fitting algorithm used for dose response data analysis in Genedata Screener is a custom implementation of a robust curve-fitting algorithm called ROUT (Robust regression with outlier detection) and uses a four-parameter logistical (4 PL) Hill model.

[2] = system: rat MDR1 (mdr1a, P-gp); assay: Transcellular transport in rat mdr1a-transfected LLC-PK1 cells; type: in vitro ADME; settings: pH 7.4, mdr1a-LLC-PK1, 5 μM test compound
Method: (§1) Digoxin and mannitol were purchased from Sigma-Aldrich (St. Louis, Mo.). 3H-digoxin and 14C-mannitol were purchased from PerkinElmer Life and Analytical Sciences (Boston, Mass.). Transport buffer was prepared using Hank's balanced salt solution (HBSS) supplemented with 10 mM Hepes, pH 7.4 and 0.1% BSA (HHBSS, Invitrogen, Grand Island, N.Y., BSA, Bovine Serum Albumin, Calbiochem, La Jolla, Calif.).
(§2) Cultures were incubated at 37° C. in a humidified (95% relative humidity) atmosphere of 5% CO2/95% air. The parental cell line LLC-PK1 (porcine renal epithelial cells) was purchased from American Type Culture Collection (ATCC, Manassas, Va.). Human MDR1 and Sprague-Dawley rat mdra1 transfectants in LLC-PK1 were generated at Amgen (Thousand Oaks, Calif.). Cells were cultured in Medium 199 supplemented with 2 mM L-glutamine, penicillin (50 units/mL), streptomycin (50 μg/mL), and 10% (v/v) fetal bovine serum (all from Invitrogen) (Schinkel et al, 1995).
(§3) LLC-PK1, MDR1-LLC-PK1, and mdr1a-LLC-PK1 cell monolayers were seeded onto porous (1.0 μm) polycarbonate 96-well transwell membrane filters (Millipore Corp., Billerica, Mass.) and cultured for six days with one media replacement on day four prior to transwell experiments. Cells were washed once with warmed HHBS prior to transwell experiments. Experiments were initiated by replacing the buffer in each compartment with 0.15 mL of HBSS containing 0.1% BSA with and without 5 μM of test compound in triplicate wells. The plates were incubated for two hours at 37° C. in an EVO incubator with shaking. Aliquots (100 μl) from both donor and receiver chambers were transferred to 96 well plates or scintillation vials. Protein was precipitated by addition of 200 μL acetonitrile containing 0.1% formic acid and prazosin (25 ng/mL) as internal standard. After vortexing and centrifugation at 3000 rpm for 20 min, 150 μL supernatant samples were transferred to a new plate containing 50 μL water for LC-MS/MS analysis. Transcellular transport of 3H-Digoxin was used as a positive control for Pgp. Paracellular permeability of 14C-Mannitol was used to measure the integrity of the monolayer. Sample radioactivity was measured using a liquid scintillation counter (Packard Tri-Carb 2910TR, PerkinElmer).
(§4) The apparent permeability coefficient (Papp) of all tested agents was estimated from the slope of cumulative amount (dQ) of the agent vs. time (dt), and the equation: Papp=(dQ/dt)/(A*C0)
(§5) where dQ/dt is the penetration rate of the agent […], A is the surface area of the cell layer on the Transwell (0.11 cm2), and CO is the initial concentration of the test compound (μM).

[3] = molecular target: human MDR1 (P-gp) (Homo sapiens (Human), UniProt P08183); assay: Transcellular transport in human MDR1-transfected LLC-PK1 cells; type: in vitro ADME; settings: pH 7.4, MDR1-LLC-PK1, 5 μM test compound
Method: as §1, §2, §3, §4, §5

human MDR1 (P-gp), sequence (P08183 whole entry): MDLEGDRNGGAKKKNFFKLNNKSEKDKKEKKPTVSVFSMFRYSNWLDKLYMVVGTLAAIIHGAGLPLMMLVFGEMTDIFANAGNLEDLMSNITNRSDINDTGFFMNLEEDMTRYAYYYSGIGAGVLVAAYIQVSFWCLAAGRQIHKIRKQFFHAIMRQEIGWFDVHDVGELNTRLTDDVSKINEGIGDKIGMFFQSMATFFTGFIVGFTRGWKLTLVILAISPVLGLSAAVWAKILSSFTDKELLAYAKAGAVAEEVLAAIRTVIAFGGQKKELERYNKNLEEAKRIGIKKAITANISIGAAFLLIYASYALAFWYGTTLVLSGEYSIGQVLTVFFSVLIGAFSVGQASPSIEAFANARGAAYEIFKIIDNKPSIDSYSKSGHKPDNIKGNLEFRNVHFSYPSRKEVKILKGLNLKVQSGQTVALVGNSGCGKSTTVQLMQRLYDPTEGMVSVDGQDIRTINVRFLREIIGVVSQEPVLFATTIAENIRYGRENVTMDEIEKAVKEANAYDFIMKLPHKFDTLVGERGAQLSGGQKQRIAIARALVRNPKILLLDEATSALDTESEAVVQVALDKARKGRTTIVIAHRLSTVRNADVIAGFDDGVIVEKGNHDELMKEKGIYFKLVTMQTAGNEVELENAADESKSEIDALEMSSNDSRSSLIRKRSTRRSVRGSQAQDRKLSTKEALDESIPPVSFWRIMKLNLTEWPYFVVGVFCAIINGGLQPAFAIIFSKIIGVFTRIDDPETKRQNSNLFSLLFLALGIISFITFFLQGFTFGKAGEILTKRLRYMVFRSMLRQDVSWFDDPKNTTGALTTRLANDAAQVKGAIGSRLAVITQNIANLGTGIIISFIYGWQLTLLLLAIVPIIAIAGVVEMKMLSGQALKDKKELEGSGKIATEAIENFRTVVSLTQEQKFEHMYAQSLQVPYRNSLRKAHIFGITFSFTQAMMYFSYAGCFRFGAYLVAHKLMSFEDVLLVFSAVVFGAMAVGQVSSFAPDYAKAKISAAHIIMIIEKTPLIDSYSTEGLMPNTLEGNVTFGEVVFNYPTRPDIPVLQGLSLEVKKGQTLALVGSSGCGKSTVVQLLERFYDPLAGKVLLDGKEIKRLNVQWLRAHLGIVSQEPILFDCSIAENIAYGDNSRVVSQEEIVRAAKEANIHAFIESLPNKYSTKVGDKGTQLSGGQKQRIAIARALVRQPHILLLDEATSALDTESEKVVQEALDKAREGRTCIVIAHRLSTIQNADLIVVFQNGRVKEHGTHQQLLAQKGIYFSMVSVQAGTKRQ
human PDE10A2, sequence (Q9Y233 267-1055): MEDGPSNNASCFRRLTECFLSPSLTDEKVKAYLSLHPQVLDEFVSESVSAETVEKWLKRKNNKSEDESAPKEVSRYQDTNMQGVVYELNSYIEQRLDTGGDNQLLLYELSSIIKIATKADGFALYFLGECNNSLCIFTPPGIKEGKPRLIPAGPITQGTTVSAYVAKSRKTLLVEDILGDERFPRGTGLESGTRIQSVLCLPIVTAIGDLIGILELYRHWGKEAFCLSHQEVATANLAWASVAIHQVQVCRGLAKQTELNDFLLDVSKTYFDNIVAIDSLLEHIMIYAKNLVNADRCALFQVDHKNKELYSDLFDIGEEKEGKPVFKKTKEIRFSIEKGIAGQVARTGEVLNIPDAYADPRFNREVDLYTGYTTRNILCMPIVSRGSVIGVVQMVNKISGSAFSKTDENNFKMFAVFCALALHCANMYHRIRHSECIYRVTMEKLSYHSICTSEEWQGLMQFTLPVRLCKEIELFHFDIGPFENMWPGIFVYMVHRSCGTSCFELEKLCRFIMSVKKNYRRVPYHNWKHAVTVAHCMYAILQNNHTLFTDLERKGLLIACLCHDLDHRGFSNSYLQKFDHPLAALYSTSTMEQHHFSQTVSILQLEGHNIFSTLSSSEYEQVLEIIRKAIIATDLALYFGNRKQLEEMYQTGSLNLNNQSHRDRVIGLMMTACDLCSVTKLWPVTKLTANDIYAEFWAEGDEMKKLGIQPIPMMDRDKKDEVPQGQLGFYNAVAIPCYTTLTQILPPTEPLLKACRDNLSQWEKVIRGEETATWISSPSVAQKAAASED

IC50 [1] [nM] | efflux ratio at 2 h, 5 μM [2] | efflux ratio at 2 h, 5 μM [3] | SMILES
7.6 | 1.2 | 1.8 | CNC(=O)c1ccc(-c2nccnc2C2CN(c3ncc4ccccc4n3)C2)cc1F [Example 6, 2-Fluoro-N-Methyl-4-(3-(1-(Quinazolin-2-Yl)Azetidin-3-Yl)Pyrazin-2-Yl)Benzamide]
28.7 | 2.3 | 2.9 | CNC(=O)c1ccc(-c2nccnc2C2CCN(c3ccc4ccc(Cl)cc4n3)CC2)cc1F [Example 1, 4-(3-(1-(7-Chloroquinolin-2-Yl)Piperidin-4-Yl)Pyrazin-2-Yl)-2-Fluoro-N-Methylbenzamide]
2.8 | 2.2 | 3.4 | CNC(=O)c1ccc(-c2nccnc2C2CCN(c3ccc4cc(F)ccc4n3)CC2)cc1F [Example 4, 2-Fluoro-4-(3-(1-(6-Fluoroquinolin-2-Yl)Piperidin-4-Yl)Pyrazin-2-Yl)-N-Methylbenzamide]
7.5 | 2.3 | 2.5 | CNC(=O)c1ccc(-c2nccnc2C2CCN(c3ccc4cccc(F)c4n3)CC2)cc1F [Example 5, 2-Fluoro-4-(3-(1-(8-Fluoroquinolin-2-Yl)Piperidin-4-Yl)Pyrazin-2-Yl)-N-Methylbenzamide]
4 | 3.1 | 2.95 | CNC(=O)c1ccc(-c2nccnc2C2CN(c3ccc4ccccc4n3)C2)cc1F [Example 7, 2-Fluoro-N-Methyl-4-(3-(1-(Quinolin-2-Yl)Azetidin-3-Yl) Pyrazin-2-Yl)Benzamide]
5.9 | 1.2 | 1.8 | CNC(=O)c1ccc(-c2nccnc2C2CN(c3ncc4ccc(Cl)cc4n3)C2)cc1F [Example 10, 4-(3-(1-(7-Chloroquinazolin-2-Yl)Azetidin-3-Yl)Pyrazin-2-Yl)-2-Fluoro-N-Methylbenzamide]
3.9 | 2.8 | 1.85 | CNC(=O)c1ccc(-c2nccnc2C2CN(c3ncc4cc(F)c(Cl)cc4n3)C2)cc1F [Example 12, 4-(3-(1-(7-Chloro-6-Fluoroquinazolin-2-Yl)Azetidin-3-Yl)Pyrazin-2-Yl)-2-Fluoro-N-Methylbenzamide]
1.7 | 2.7 | 3.02 | CNC(=O)c1ccc(-c2nccnc2C2CN(c3ccc4cc(F)ccc4n3)C2)cc1F [Example 13, 2-Fluoro-4-(3-(1-(6-Fluoroquinolin-2-Yl)Azetidin-3-Yl) Pyrazin-2-yl)-N-Methylbenzamide]
3.6 | 1.1 | 1.25 | CNC(=O)c1ccc(-c2nccnc2C2CN(c3ccc4ncc(Cl)cc4n3)C2)cc1F [Example 14, 4-(3-(1-(7-Chloro-1,5-Naphthyridin-2-Yl)Azetidin-3-Yl)Pyrazin-2-Yl)-2-Fluoro-N-Methylbenzamide]
6.3 | 2.7 | 2.4 | CNC(=O)c1ccc(-c2nccnc2C2CCN(c3ccc4ccc(F)cc4n3)CC2)cc1F [Example 2, 2-Fluoro-4-(3-(1-(7-Fluoroquinolin-2-Yl)Piperidin-4-Yl) Pyrazin-2-Yl)-N-Methylbenzamide]
3.1 | 2.1 | 2 | CNC(=O)c1ccc(-c2nccnc2C2CCN(c3ccc4ccccc4n3)CC2)cc1F [Example 3, 2-Fluoro-N-Methyl-4-(3-(1-(Quinolin-2-Yl)Piperidin-4-Yl)Pyrazin-2-Yl)Benzamide]
30.9 | 2.7 | 1.8 | CNC(=O)c1ccc(-c2nccnc2C2CN(c3ncc4ccc(F)cc4n3)C2)cc1F [Example 9, 2-Fluoro-4-(3-(1-(7-Fluoroquinazolin-2-Yl)Azetidin-3-Yl)Pyrazin-2-Yl)-N-Methylbenzamide]
0.5 | 2.5 | 2.8 | CNC(=O)c1ccc(-c2nccnc2C2CN(c3ccc4ccc(F)cc4n3)C2)cc1F [Example 8, 2-Fluoro-4-(3-(1-(7-Fluoroquinolin-2-Yl)Azetidin-3-Yl) Pyrazin-2-Yl)-N-Methylbenzamide]
16.6 | 1.2 | 1.75 | CNC(=O)c1ccc(-c2nccnc2C2CN(c3ncc4cc(F)ccc4n3)C2)cc1F [Example 11, 2-Fluoro-4-(3-(1-(6-Fluoroquinazolin-2-Yl)Azetidin-3-Yl)Pyrazin-2-Yl)-N-Methylbenzamide]
